In US20160009693A1, “HERBICIDAL COMPOUNDS” (SYNGENTA LIMITED, priority 2013, published 2016):

How the values were obtained:
Type in all cases: in vivo
Conditions in all cases: applied at 1000 g/h, evaluated after 13 days
[1] = system: Echinochloa crus-galli (ECHCG); assay: Herbicidal glasshouse test, pre-emergence, ECHCG
Method in brief: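 Echinochloa crus-galli seeds were sown in standard soil in pots and grown for one day in a glasshouse at 24/16° C. day/night, 14 hours light and 65% humidity. Pre-emergence spraying used an aqueous solution of the active ingredient in acetone/water (50:50) with 0.5% Tween 20. Damage was scored after 13 days on a five point scale.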

Solanum nigrum (SOLNI) [2] = assay: Herbicidal glasshouse test, post-emergence, SOLNI
[3] = system: Alopecurus myosuroides (ALOMY); assay: Herbicidal glasshouse test, pre-emergence, ALOMY
[4] = system: Echinochloa crus-galli (ECHCG); assay: Herbicidal glasshouse test, post-emergence, ECHCG
Method in brief: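 Echinochloa crus-galli (ECHCG) seeds were sown in standard soil in pots and grown for 8 days in a glasshouse at 24/16° C. day/night, 14 hours light and 65% humidity. The young plants were then sprayed post-emergence with the active ingredient in acetone / water (50:50) containing 0.5% Tween 20. Damage was scored after 13 days.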

Solanum nigrum (SOLNI) [5] = assay: Herbicidal glasshouse test, pre-emergence, SOLNI
Method in brief: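 Seeds of Solanum nigrum were sown in pots of standard soil and kept one day in a glasshouse at 24/16° C. day/night, 14 hours light and 65% humidity. For the pre-emergence treatment they were then sprayed with an aqueous solution of the active ingredient formulated in acetone/water (50:50) containing 0.5% Tween 20. Plant damage was rated after 13 days.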

[6] = system: Amaranthus retoflexus (AMARE); assay: Herbicidal glasshouse test, post-emergence, AMARE
Method in brief: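 Amaranthus retoflexus (AMARE) seeds were sown in pots of standard soil and grown in a glasshouse at 24/16° C. day/night, 14 hours light and 65% humidity for 8 days. The plants were then sprayed post-emergence with an aqueous solution of the active ingredient in acetone/water (50:50) with 0.5% Tween 20. Damage was scored after 13 days.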

[7] = system: Alopecurus myosuroides (ALOMY); assay: Herbicidal glasshouse test, post-emergence, ALOMY
Setaria faberi (SETFA) [8] = assay: Herbicidal glasshouse test, post-emergence, SETFA
Method in brief: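 Setaria faberi seeds were sown in standard soil in pots and grown for 8 days in a glasshouse at 24/16° C. day/night, 14 hours light and 65% humidity. The seedlings were then sprayed post-emergence with the active ingredient in acetone/water (50:50) containing 0.5% Tween 20. Afterwards they were kept under the same conditions, watered twice daily, and scored for percentage damage on a five point scale.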

[9] = system: Amaranthus retoflexus (AMARE); assay: Herbicidal glasshouse test, pre-emergence, AMARE
Method in brief: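 Amaranthus retoflexus seeds were sown in pots of standard soil and kept one day in a glasshouse at 24/16° C. (day/night), 14 hours light and 65% humidity. They were then sprayed pre-emergence with the active ingredient in acetone/water (50:50) containing 0.5% Tween 20. Plants grew under the same conditions, watered twice daily, and percentage damage was scored after 13 days.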

Setaria faberi (SETFA) [10] = assay: Herbicidal glasshouse test, pre-emergence, SETFA
[11] = system: Ipomoea hederacea (IPOHE); assay: Herbicidal glasshouse test, pre-emergence, IPOHE
[12] = system: Ipomoea hederacea (IPOHE); assay: Herbicidal glasshouse test, post-emergence, IPOHE

SMILES | PRE Application ECHCG, percentage damage (five point scale) [1] | POST Application SOLNI, percentage damage (five point scale) (Solanum nigrum (SOLNI) [2]) | PRE Application ALOMY, percentage damage (five point scale) [3] | POST Application ECHCG, percentage damage (five point scale) [4] | PRE Application SOLNI, percentage damage (five point scale) (Solanum nigrum (SOLNI) [5]) | POST Application AMARE, percentage damage (five point scale) [6] | POST Application ALOMY, percentage damage (five point scale) [7] | POST Application SETFA, percentage damage (five point scale) (Setaria faberi (SETFA) [8]) | PRE Application AMARE, percentage damage (five point scale) [9] | PRE Application SETFA, percentage damage (five point scale) (Setaria faberi (SETFA) [10]) | PRE Application IPOHE, percentage damage (five point scale) [11] | POST Application IPOHE, percentage damage (five point scale) [12]
Cn1nnnc1NC(=O)c1nn(C)c(=O)n(Cc2ccccc2C(F)(F)F)c1=O [Compound 1.062] | 5 (5=80-100%) | 5 (5=80-100%) | 5 (5=80-100%) | 5 (5=80-100%) | 5 (5=80-100%) | 5 (5=80-100%) | 5 (5=80-100%) | 5 (5=80-100%) | 5 (5=80-100%) | 5 (5=80-100%) | 5 (5=80-100%) | 5 (5=80-100%)
Cn1nnnc1NC(=O)c1nn(C)c(=O)n(Cc2cccc(F)c2)c1=O [Compound 1.063] | 5 (5=80-100%) | 5 (5=80-100%) | 5 (5=80-100%) | 5 (5=80-100%) | 5 (5=80-100%) | 5 (5=80-100%) | 5 (5=80-100%) | 4 (4=60-79%) | 5 (5=80-100%) | 4 (4=60-79%) | 5 (5=80-100%) | 5 (5=80-100%)
Cn1nnnc1NC(=O)c1nn(C)c(=O)n(Cc2ccc(F)c(F)c2)c1=O [Compound 1.064] | 5 (5=80-100%) | 5 (5=80-100%) | 5 (5=80-100%) | 5 (5=80-100%) | 5 (5=80-100%) | 5 (5=80-100%) | 2 (2=20-39%) | 2 (2=20-39%) | 5 (5=80-100%) | 1 (1=0-19%) | 5 (5=80-100%) | 5 (5=80-100%)
Cn1nnnc1NC(=O)c1nn(C)c(=O)n(Cc2c(F)cccc2F)c1=O [Compound 1.065] | 5 (5=80-100%) | 5 (5=80-100%) | 5 (5=80-100%) | 5 (5=80-100%) | 5 (5=80-100%) | 5 (5=80-100%) | 5 (5=80-100%) | 5 (5=80-100%) | 5 (5=80-100%) | 5 (5=80-100%) | 5 (5=80-100%) | 5 (5=80-100%)
Cn1nnnc1NC(=O)c1nn(C)c(=O)n(Cc2ccc(OC(F)F)cc2)c1=O [Compound 1.066] | 5 (5=80-100%) | 5 (5=80-100%) | 5 (5=80-100%) | 5 (5=80-100%) | 5 (5=80-100%) | 5 (5=80-100%) | 5 (5=80-100%) | 1 (1=0-19%) | 5 (5=80-100%) | 1 (1=0-19%) | 5 (5=80-100%) | 5 (5=80-100%)
Cn1nnnc1NC(=O)c1nn(C)c(=O)n(Cc2cccc(F)c2F)c1=O [Compound 1.067] | 5 (5=80-100%) | 5 (5=80-100%) | 5 (5=80-100%) | 5 (5=80-100%) | 5 (5=80-100%) | 5 (5=80-100%) | 5 (5=80-100%) | 4 (4=60-79%) | 5 (5=80-100%) | 4 (4=60-79%) | 5 (5=80-100%) | 5 (5=80-100%)
Cn1nnnc1NC(=O)c1nn(C)c(=O)n(Cc2ccc(Cl)c(Cl)c2)c1=O [Compound 1.068] | 2 (2=20-39%) | 5 (5=80-100%) | 3 (3=40-59%) | 4 (4=60-79%) | 5 (5=80-100%) | 5 (5=80-100%) | 3 (3=40-59%) | 1 (1=0-19%) | 5 (5=80-100%) | 1 (1=0-19%) | 1 (1=0-19%) | 5 (5=80-100%)
Cn1nnnc1NC(=O)c1nn(C)c(=O)n(Cc2ccc(F)cc2Cl)c1=O [Compound 1.069] | 5 (5=80-100%) | 5 (5=80-100%) | 5 (5=80-100%) | 5 (5=80-100%) | 5 (5=80-100%) | 5 (5=80-100%) | 5 (5=80-100%) | 2 (2=20-39%) | 5 (5=80-100%) | 2 (2=20-39%) | 5 (5=80-100%) | 5 (5=80-100%)
COc1cc(Cn2c(=O)c(C(=O)Nc3nnnn3C)nn(C)c2=O)cc(Cl)n1 [Compound 1.070] | 5 (5=80-100%) | 5 (5=80-100%) | 5 (5=80-100%) | 5 (5=80-100%) | 5 (5=80-100%) | 5 (5=80-100%) | 5 (5=80-100%) | 2 (2=20-39%) | 5 (5=80-100%) | 1 (1=0-19%) | 5 (5=80-100%) | 5 (5=80-100%)
